Assay results: US20260327232A1, “Heteroaryl Compounds as Ligand Directed Degraders of IRAK4” (Celgene Corporation, priority 2023, published 2026)
Counter-ions that a name gives are not always drawn.

Tests used:
[1] = biological target: T1, IRAK4 (Homo sapiens, UniProt Q9NWZ3); assay: ALE THP1 HTRF (IRAK4 in THP1 cell lysates, Homogeneous Time Resolved Fluorescence); assay type: cell-based; parameters: THP1 Homogeneous Time Resolved Fluorescence (ALE THP1 HTRF) Procedure; endogenous in cells; host or cells: THP1; conditions: THP1 cells
T1 sequence (Q9NWZ3 1-460): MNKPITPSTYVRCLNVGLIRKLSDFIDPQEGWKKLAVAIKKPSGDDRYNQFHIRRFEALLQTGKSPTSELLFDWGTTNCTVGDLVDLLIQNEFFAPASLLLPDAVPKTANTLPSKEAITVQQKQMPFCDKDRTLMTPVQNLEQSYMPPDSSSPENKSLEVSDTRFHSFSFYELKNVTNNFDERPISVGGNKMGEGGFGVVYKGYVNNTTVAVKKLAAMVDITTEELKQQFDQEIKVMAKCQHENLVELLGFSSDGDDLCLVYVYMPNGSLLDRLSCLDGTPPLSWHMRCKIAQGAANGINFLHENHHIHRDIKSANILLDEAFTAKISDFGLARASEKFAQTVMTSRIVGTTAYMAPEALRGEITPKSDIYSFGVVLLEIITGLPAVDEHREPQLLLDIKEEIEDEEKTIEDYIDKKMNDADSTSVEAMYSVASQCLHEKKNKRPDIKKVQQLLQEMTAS
Description: Cell culture media was prepared in a tissue culture hood in a sterile environment by adding 10% FBS and 1% Penicillin Streptomycin to 500 mL no phenol red RPMI 1640 media. The media was filtered through a Nalgene Bottle Top Filter and stored at 4° C.
For Homogenous Time Resolved Fluorescence (HTRF) assays, a Cisbio HTRF kit was used, which included: Lysis Buffer #1 4×, Blocking Reagent #3 100×, 20× Antibody 1 (Anti-IRAK4 d2), 20× Antibody 2 (Anti-IRAK4 k), and Detection Buffer.
4× Lysis Buffer was stored at 4° C. For use as 1× Lysis buffer, the 4× solution was diluted with de-ionized water (distilled water, Gibco Cat. #15230279) and 100× Blocking Reagent in a 1:3:0.04 volume ratio.
20× Antibody Solution aliquots were stored in −80° C. and the Detection Buffer was stored in 4° C. For use as a 1× Antibody Solution, the 20× Antibody Solution aliquot was diluted with Detection Buffer in a 1:19 volume ratio.
Cells were lysed at room temperature for 45 min with shaking. A BCA protein assay was performed and normalization was conducted to the desired total protein concentration with 1× lysis buffer. Next, 1× Antibody Solutions were prepared by adding 380 μL Detection Buffer to 20 μL 20× Antibody Solution aliquots and mixing well. 1× Antibody Solutions were combined 1:1 and briefly vortexed. For control wells, 20 μL 1× anti IRAK4-k Antibody Solution was saved. The 384-well plate (ProxiPlate-384 Plus, Perkin Elmer Cat. #6008289) was loaded by adding 4 μL of the mixed Antibody Solution to empty wells using a single channel repeater. Using a multi-channel repeater, 16 μL lysate was added per well, and any bubbles that were formed were popped with 20 μL pipette tips and Kimwipe edges. In column 10, triplicates of each control was prepared. In wells A10, B10, and C10, buffer control was prepared by adding 16 μL Lysis Buffer and 4 μL Detection Buffer. In wells D10, E10, and F10, cryptate control was prepared by adding 16 μL Lysis Buffer, 2 μL Detection Buffer, and 2 μL 1× anti IRAK4-k Antibody Solution. In wells G10, H10, and 110, a negative control was prepared by adding 16 μL Lysis Buffer and 4 μL mixed Antibody Solution. The plate was sealed with a clear seal and covered with an aluminum lid. The plate was spun down at 800 g for 5 min and incubated in the dark at room temperature overnight. The next day, the plate was spun down at 800 g for 5 min. The samples were analyzed by a plate reader (Envision, PerkinElmer) using the Desnor 384 HTRF program.

[2] = biological target: T1, IRAK4; assay: IRAK4 PhosphoSens Biochemical Assay (BIOCHEM); conditions: 200 μM ATP, 10 μM peptide substrate AQT0326, 1 nM IRAK4, room temperature, 240 minutes
Description: The PhosphoSens® biochemical assay was performed as described by the vendor (AssayQuant Technologies Inc. Marlborough, MA). A 1.25× stock solution of IRAK4 (PV4002, ThermoFisher Scientific, Waltham, MA) and a 5× stock solution of ATP and Sox conjugated peptide substrate, AQT0326 (CSKS-AQT0326B, AssayQuant Technologies), were prepared in 1× kinase reaction buffer consisting of 50 mM HEPES, pH 7.5, 0.01% Brij-35, 0.5 mM EGTA, 20 mM MgCl2 and 1 mM DTT. 10 μL of the ATP and substrate solution mix, for a final concentration of 200 μM ATP and 10 μM peptide substrate, was added to a Coming 3574 384-well, white, non-binding surface microtiter plate containing 0.5 μL of serially diluted test compounds prepared in DMSO. The reactions were started with the addition of 40 μL of the enzyme solution, for a final IRAK4 concentration of 1 nM, and monitored every 71 seconds for 240 minutes at λEX 360/λEM 485 in a BioTek Synergy H4 plate reader (Agilent Technologies, Santa Clara, CA) at room temperature. The initial linear portions of the progress curves were fit according to a linear equation to yield the slopes and converted to % inhibition based on a value of 100% activity for the no inhibitor treated control. IC50 values of each compound were obtained by fitting the % inhibition-compound concentration curves using Dotmatics software (Dotmatics, Bishops Stortford, Hertfordshire, England).

[3] = biological target: T1, IRAK4; assay: IRAK4 PhosphoSens Biochemical Assay (BIOCHEM); conditions: 200 μM ATP, 10 μM peptide substrate AQT0326, 1 nM IRAK4, room temperature, 240 minutes; remark: listed apart in the source

For `Cn1nc(C2CCC(=O)NC2=O)c2ccc(NC3CCN(CC4CCC(n5cc(NC(=O)c6cnn7ccc(N8C[C@H](N)C[C@@H](F)C8)nc67)c(C(F)F)n5)CC4)CC3)cc21` (stereo partly drawn) [P-2, N-[3-(difluoromethyl)-1-[4-[[4-[[3-(2,6-dioxo-3-piperidyl)-1-methyl-indazol-6-yl]amino]-1-piperidyl]methyl]cyclohexyl]pyrazol-4-yl]-5-[(3R,5R)-3-amino-5-fluoro-1-piperidyl]pyrazolo[1,5-a]pyrimidine-3-carboxamide], the EC50 [1] was 4 nM and the IC50 [2] was under 0.5 nM.

`Cn1nc(C2CCC(=O)NC2=O)c2cccc(NC3CCN(CC4CCC(n5cc(NC(=O)c6cnn7ccc(N8C[C@H](N)C[C@@H](F)C8)nc67)c(C(F)F)n5)CC4)CC3)c21` (some centres unmarked) [P-3] gave an EC50 [1] of 8 nM and an IC50 [2] of under 0.5 nM.

For `Cn1nc(C2CCC(=O)NC2=O)c2ccc(NC3CCN(CC4CCC(n5cc(NC(=O)c6cnn7ccc(N8CC[C@H](F)[C@@H](N)C8)nc67)c(C(F)F)n5)CC4)CC3)cc21` (stereo partly drawn) [P-18, N-[3-(Difluoromethyl)-1-[4-[[4-[[3-(2,6-dioxo-3-piperidyl)-1-methyl-indazol-6-yl]amino]-1-piperidyl]methyl]cyclohexyl]pyrazol-4-yl]-5-[(3S,4S)-3-amino-4-fluoro-1-piperidyl]pyrazolo[1,5-a]pyrimidine-3-carboxamide], the EC50 [1] was 1 nM and the IC50 [2] was under 0.5 nM.

`Cn1nc(C2CCC(=O)NC2=O)c2ccc(NC3CCN(CC4CCC(n5cc(NC(=O)c6cnn7ccc(N8CC[C@@H](F)[C@@H](N)C8)nc67)c(C(F)F)n5)CC4)CC3)cc21` (some centres unmarked) [P-21] was tested, and the EC50 [1] was over 10000 nM and the IC50 [2] was under 0.5 nM.

For `Cn1nc(C2CCC(=O)NC2=O)c2ccc(N[C@@H]3CCN(CC4CCC(n5cc(NC(=O)c6cnn7ccc(N8C[C@H](N)C[C@@H](F)C8)nc67)c(C(F)F)n5)CC4)C[C@@H]3F)cc21` (some centres unmarked) [P-24], the EC50 [1] was 4 nM and the IC50 [2] was under 0.5 nM.

In the case of `Cn1nc(C2CCC(=O)NC2=O)c2ccc(N[C@H]3CCN(CC4CCC(n5cc(NC(=O)c6cnn7ccc(N8C[C@H](N)C[C@@H](F)C8)nc67)c(C(F)F)n5)CC4)C[C@@H]3F)cc21` (some centres unmarked) [P-25], the EC50 [1] is reported as 8 nM and the IC50 [2] is reported as under 0.5 nM.

`Cn1nc(C2CCC(=O)NC2=O)c2ccc(NC3CCN(CC4CCC(n5cc(NC(=O)c6cnn7ccc(N8CCOCC8)nc67)c(C(F)F)n5)CC4)CC3)cc21` (centres unmarked) [P-27, N-[3-(Difluoromethyl)-1-[4-[[4-[[3-(2,6-dioxo-3-piperidyl)-1-methyl-indazol-6-yl]amino]-1-piperidyl]methyl]cyclohexyl]pyrazol-4-yl]-5-morpholino-pyrazolo[1,5-a]pyrimidine-3-carboxamide formic acid salt] was tested, and the EC50 [1] was 1 nM and the IC50 [2] was under 0.5 nM.

`CN(c1ccc2c(C3CCC(=O)NC3=O)nn(C)c2c1)C1CCN(CC[C@H]2CC[C@H](n3cc(NC(=O)c4cnn5ccc(N6C[C@H](N)C[C@@H](F)C6)nc45)c(C(F)F)n3)CC2)CC1` (some centres unmarked) [P-33] gave an EC50 [1] of 10 nM and an IC50 [3] of under 0.5 nM.

With `CN(CC[C@H]1CC[C@H](n2cc(NC(=O)c3cnn4ccc(N5CCOCC5)nc34)c(C(F)F)n2)CC1)C1CCN(c2cccc3c(C4CCC(=O)NC4=O)nn(C)c23)CC1` (some centres unmarked) [P-35] the EC50 [1] was 4 nM and the IC50 [3] was 0.8 nM.

`C[C@H]1CN(CCN2CCC(n3cc(NC(=O)c4cnn5ccc(N6C[C@H](N)C[C@@H](F)C6)nc45)c(C(F)F)n3)CC2)CCN1c1ccc2c(C3CCC(=O)NC3=O)nn(C)c2c1` (some centres unmarked) [P-36] showed an EC50 [1] of 5 nM and an IC50 [3] of under 0.5 nM.

`C[C@@H]1CN(CCN2CCC(n3cc(NC(=O)c4cnn5ccc(N6C[C@H](N)C[C@@H](F)C6)nc45)c(C(F)F)n3)CC2)CCN1c1ccc2c(C3CCC(=O)NC3=O)nn(C)c2c1` (stereo partly drawn) [P-37, 5-((3R,5R)-3-amino-5-fluoropiperidin-1-yl)-N-(3-(difluoromethyl)-1-(1-(2-((3R)-4-(3-(2,6-dioxopiperidin-3-yl)-1-methyl-1H-indazol-6-yl)-3-methylpiperazin-1-yl)ethyl)piperidin-4-yl)-1H-pyrazol-4-yl)pyrazolo[1,5-a]pyrimidine-3-carboxamide] showed an EC50 [1] of 5 nM and an IC50 [3] of under 0.5 nM.

`CN(CC[C@H]1CC[C@H](n2cc(NC(=O)c3cnn4ccc(N5CCOCC5)nc34)c(C(F)F)n2)CC1)C1CCN(c2ccc3c(C4CCC(=O)NC4=O)nn(C)c3c2)CC1` (some centres unmarked) [P-38] showed an EC50 [1] of over 10000 nM and an IC50 [3] of under 0.5 nM.

For `Cn1nc(C2CCC(=O)NC2=O)c2ccc(N3CCN(CCN4CCC(n5cc(NC(=O)c6cnn7ccc(N8C[C@H](N)C[C@@H](F)C8)nc67)c(C(F)F)n5)CC4)CC3)cc21` (stereo partly drawn) [P-40, N-[3-(Difluoromethyl)-1-[1-[2-[4-[3-(2,6-dioxo-3-piperidyl)-1-methyl-indazol-6-yl]piperazin-1-yl]ethyl]-4-piperidyl]pyrazol-4-yl]-5-[(3R,5R)-3-amino-5-fluoro-1-piperidyl]pyrazolo[1,5-a]pyrimidine-3-carboxamide], the EC50 [1] was 6 nM and the IC50 [3] was under 0.5 nM.

`CN(C[C@H]1CC[C@H](n2cc(NC(=O)c3cnn4ccc(N5CCOC5)nc34)c(C(F)F)n2)CC1)C1CCN(c2ccc3c(C4CCC(=O)NC4=O)nn(C)c3c2)CC1` (some centres unmarked) [P-41] was tested, and the EC50 [1] was over 10000 nM and the IC50 [3] was under 0.5 nM.

Compound `CN(C)c1ccn2ncc(C(=O)Nc3cn([C@H]4CC[C@H](CN(C)C5CCN(c6ccc7c(C8CCC(=O)NC8=O)nn(C)c7c6)CC5)CC4)nc3C(F)F)c2n1` (some centres unmarked) [P-43] has an EC50 [1] of over 10000 nM and an IC50 [3] of under 0.5 nM.

`CN(C[C@H]1CC[C@H](n2cc(NC(=O)c3cnn4ccc(NCc5ccccn5)nc34)c(C(F)F)n2)CC1)C1CCN(c2ccc3c(C4CCC(=O)NC4=O)nn(C)c3c2)CC1` (some centres unmarked) [P-44] was tested, and the EC50 [1] was over 10000 nM and the IC50 [3] was 7.3 nM.

For `CN(C[C@H]1CC[C@H](n2cc(NC(=O)c3cnn4ccc(NCCN)nc34)c(C(F)F)n2)CC1)C1CCN(c2ccc3c(C4CCC(=O)NC4=O)nn(C)c3c2)CC1` (some centres unmarked) [P-45], the EC50 [1] was 4 nM and the IC50 [3] was under 0.5 nM.

`CN(C[C@H]1CC[C@H](n2cc(NC(=O)c3cnn4ccc(N5CC[C@H](c6ccn(C)n6)C5)nc34)c(C(F)F)n2)CC1)C1CCN(c2ccc3c(C4CCC(=O)NC4=O)nn(C)c3c2)CC1` (some centres unmarked) [P-46] gave an EC50 [1] of over 3000 nM and an IC50 [3] of 0.8 nM.

`CN(C[C@H]1CC[C@H](n2cc(NC(=O)c3cnn4ccc(N5CC[C@@H](c6ccn(C)n6)C5)nc34)c(C(F)F)n2)CC1)C1CCN(c2ccc3c(C4CCC(=O)NC4=O)nn(C)c3c2)CC1` (some centres unmarked) [P-47] gave an EC50 [1] of 3750 nM and an IC50 [3] of 2.4 nM.
